According to the NIST ThermoML archive (doi:10.1016/j.jct.2014.07.018):
Where “and” joins values, the source holds several entries; their conditions need not be identical. Equal values may be shown once.

Assay: molar heat capacity at constant pressure
Settings: 101.33 kPa, Vacuum adiabatic calorimetry

CCC[n+]1ccn(C)c1.[Br-] [1-methyl-3-propylimidazolium bromide]
molar heat capacity at constant pressure
Settings	Crystal 2	Glass
5 K	0.294 J/K/mol	1 J/K/mol
5.52 K	0.401 J/K/mol	–
5.87 K	0.492 J/K/mol	–
6.21 K	0.596 J/K/mol	–
6.59 K	0.729 J/K/mol	–
6.61 K	–	2.26 J/K/mol
6.94 K	–	2.56 J/K/mol
6.97 K	0.883 J/K/mol	–
7.33 K	–	2.953 J/K/mol
7.35 K	1.057 J/K/mol	–
7.73 K	1.253 J/K/mol	–
7.74 K	–	3.376 J/K/mol
8.12 K	1.472 J/K/mol	–
8.14 K	–	3.817 J/K/mol
8.51 K	1.709 J/K/mol	–
8.55 K	–	4.303 J/K/mol
8.89 K	1.969 J/K/mol	–
8.96 K	–	4.799 J/K/mol
9.28 K	2.25 J/K/mol	–
9.37 K	–	5.312 J/K/mol
9.68 K	2.56 J/K/mol	–
9.78 K	–	5.854 J/K/mol
10 K	2.83 J/K/mol	6.16 J/K/mol
10.07 K	2.896 J/K/mol	–
10.19 K	–	6.42 J/K/mol
10.57 K	3.349 J/K/mol	–
10.71 K	–	7.156 J/K/mol
11.17 K	3.934 J/K/mol	–
11.34 K	–	8.069 J/K/mol
11.78 K	4.563 J/K/mol	–
11.96 K	–	9.014 J/K/mol
12.39 K	5.251 J/K/mol	–
12.59 K	–	10.01 J/K/mol
12.76 K	–	10.27 J/K/mol
13 K	5.972 J/K/mol	–
13.23 K	–	11.02 J/K/mol
13.27 K	–	11.09 J/K/mol
13.62 K	6.746 J/K/mol	–
13.86 K	–	12.06 J/K/mol
13.9 K	–	12.12 J/K/mol
14.24 K	7.548 J/K/mol	–
14.5 K	–	13.11 J/K/mol
14.53 K	–	13.18 J/K/mol
14.85 K	8.382 J/K/mol	–
15 K	8.58 J/K/mol	13.96 J/K/mol
15.17 K	–	14.27 J/K/mol
15.58 K	9.404 J/K/mol	–
15.96 K	–	15.61 J/K/mol
16.42 K	10.63 J/K/mol	–
16.9 K	–	17.24 J/K/mol
17.26 K	11.9 J/K/mol	–
17.83 K	–	18.9 J/K/mol
18.09 K	13.21 J/K/mol	–
18.77 K	–	20.57 J/K/mol
18.93 K	14.56 J/K/mol	–
19.7 K	–	22.25 J/K/mol
19.77 K	15.94 J/K/mol	–
20 K	16.31 J/K/mol	22.8 J/K/mol
20.91 K	17.83 J/K/mol	–
20.95 K	–	24.53 J/K/mol
22.33 K	20.27 J/K/mol	–
22.51 K	–	27.36 J/K/mol
23.77 K	22.77 J/K/mol	–
24.09 K	–	30.19 J/K/mol
25 K	24.9 J/K/mol	31.8 J/K/mol
25.2 K	25.25 J/K/mol	–
25.66 K	–	32.96 J/K/mol
26.63 K	27.75 J/K/mol	–
27.23 K	–	35.71 J/K/mol
28.07 K	30.25 J/K/mol	–
28.81 K	–	38.42 J/K/mol
29.52 K	32.71 J/K/mol	–
30 K	33.56 J/K/mol	40.46 J/K/mol
30.4 K	–	41.1 J/K/mol
31.17 K	35.56 J/K/mol	–
32.13 K	–	43.97 J/K/mol
33.03 K	38.66 J/K/mol	–
34.01 K	–	46.95 J/K/mol
34.89 K	41.68 J/K/mol	–
35 K	41.84 J/K/mol	48.45 J/K/mol
35.9 K	–	49.88 J/K/mol
36.76 K	44.57 J/K/mol	–
37.79 K	–	52.63 J/K/mol
38.63 K	47.38 J/K/mol	–
39.67 K	–	55.27 J/K/mol
40 K	49.44 J/K/mol	55.78 J/K/mol
40.49 K	50.15 J/K/mol	–
41.76 K	–	58.17 J/K/mol
42.5 K	53 J/K/mol	–
44.05 K	–	61.22 J/K/mol
44.67 K	55.99 J/K/mol	–
45 K	56.45 J/K/mol	62.48 J/K/mol
46.42 K	–	64.28 J/K/mol
46.85 K	58.9 J/K/mol	–
48.69 K	–	67.11 J/K/mol
49.03 K	61.73 J/K/mol	–
50 K	62.88 J/K/mol	68.62 J/K/mol
50.77 K	–	69.55 J/K/mol
51.21 K	64.4 J/K/mol	–
52.86 K	–	71.87 J/K/mol
53.39 K	66.92 J/K/mol	–
54.95 K	–	74.14 J/K/mol
55.57 K	69.38 J/K/mol	–
57.04 K	–	76.42 J/K/mol
57.75 K	71.78 J/K/mol	–
59.13 K	–	78.63 J/K/mol
59.93 K	74.14 J/K/mol	–
60 K	74.22 J/K/mol	79.52 J/K/mol
61.23 K	–	80.83 J/K/mol
62.13 K	76.42 J/K/mol	–
63.32 K	–	82.92 J/K/mol
64.33 K	78.63 J/K/mol	–
65.42 K	–	84.99 J/K/mol
66.53 K	80.71 J/K/mol	–
67.53 K	–	86.98 J/K/mol
68.72 K	82.68 J/K/mol	–
69.62 K	–	88.87 J/K/mol
70 K	83.84 J/K/mol	89.28 J/K/mol
70.92 K	84.56 J/K/mol	–
71.72 K	–	90.74 J/K/mol
73.18 K	86.57 J/K/mol	–
73.83 K	–	92.54 J/K/mol
75.5 K	88.58 J/K/mol	–
75.93 K	–	94.45 J/K/mol
77.81 K	90.59 J/K/mol	–
78.04 K	–	96.34 J/K/mol
78.3 K	90.96 J/K/mol	–
78.68 K	91.25 J/K/mol	–
79.18 K	–	97.3 J/K/mol
80 K	92.3 J/K/mol	97.87 J/K/mol
80.13 K	92.58 J/K/mol	–
80.17 K	–	98.2 J/K/mol
80.36 K	92.62 J/K/mol	–
80.94 K	93.01 J/K/mol	–
81.21 K	–	98.9 J/K/mol
82.27 K	94.04 J/K/mol	–
82.29 K	–	99.76 J/K/mol
82.46 K	94.26 J/K/mol	–
82.87 K	94.47 J/K/mol	–
83.14 K	–	100.3 J/K/mol
84.2 K	95.47 J/K/mol	–
84.42 K	–	101.2 J/K/mol
84.8 K	95.84 J/K/mol and 95.9 J/K/mol	–
85.07 K	–	101.7 J/K/mol
86.13 K	96.85 J/K/mol	–
86.73 K	97.28 J/K/mol	–
87.01 K	–	103.1 J/K/mol
88.08 K	98.24 J/K/mol	–
88.67 K	98.67 J/K/mol	–
88.94 K	–	104.6 J/K/mol
90 K	99.64 J/K/mol	105.4 J/K/mol
90.04 K	99.66 J/K/mol	–
90.6 K	100 J/K/mol	–
90.88 K	–	106 J/K/mol
92.01 K	101.1 J/K/mol	–
92.54 K	101.4 J/K/mol	–
92.82 K	–	107.4 J/K/mol
93.99 K	102.5 J/K/mol	–
94.48 K	102.8 J/K/mol	–
94.77 K	–	108.7 J/K/mol
95.98 K	103.8 J/K/mol	–
96.43 K	104.1 J/K/mol	–
96.72 K	–	110.1 J/K/mol
97.97 K	105.1 J/K/mol	–
98.38 K	105.4 J/K/mol	–
98.66 K	–	111.4 J/K/mol
99.98 K	106.5 J/K/mol	–
100 K	106.4 J/K/mol	112.3 J/K/mol
100.34 K	106.7 J/K/mol	–
100.62 K	–	112.7 J/K/mol
101.99 K	107.7 J/K/mol	–
102.29 K	107.9 J/K/mol	–
102.57 K	–	114 J/K/mol
104.01 K	109 J/K/mol	–
104.25 K	109.1 J/K/mol	–
104.53 K	–	115.3 J/K/mol
106.04 K	110.2 J/K/mol	–
106.21 K	110.3 J/K/mol	–
106.49 K	–	116.5 J/K/mol
108.08 K	111.5 J/K/mol	–
108.17 K	111.6 J/K/mol	–
108.45 K	–	117.8 J/K/mol
110 K	112.6 J/K/mol	118.7 J/K/mol
110.12 K	112.7 J/K/mol	–
110.14 K	112.7 J/K/mol	–
110.41 K	–	119 J/K/mol
112.1 K	113.9 J/K/mol	–
112.17 K	113.9 J/K/mol	–
112.38 K	–	120.2 J/K/mol
114.07 K	115 J/K/mol	–
114.22 K	115.1 J/K/mol	–
114.35 K	–	121.4 J/K/mol
116.04 K	116.2 J/K/mol	–
116.28 K	116.3 J/K/mol	–
116.32 K	–	122.6 J/K/mol
118.01 K	117.3 J/K/mol	–
118.29 K	–	123.8 J/K/mol
118.34 K	117.5 J/K/mol	–
119.98 K	118.4 J/K/mol	–
120 K	118.4 J/K/mol	124.8 J/K/mol
120.27 K	–	124.9 J/K/mol
120.41 K	118.7 J/K/mol	–
121.96 K	119.4 J/K/mol	–
122.24 K	–	126.1 J/K/mol
122.48 K	119.8 J/K/mol	–
123.94 K	120.6 J/K/mol	–
124.22 K	–	127.2 J/K/mol
124.56 K	121 J/K/mol	–
125.91 K	121.7 J/K/mol	–
126.2 K	–	128.4 J/K/mol
126.63 K	122.1 J/K/mol	–
127.9 K	122.8 J/K/mol	–
128.18 K	–	129.5 J/K/mol
128.72 K	123.2 J/K/mol	–
129.88 K	123.8 J/K/mol	–
130 K	123.9 J/K/mol	130.6 J/K/mol
130.17 K	–	130.7 J/K/mol
130.8 K	124.4 J/K/mol	–
131.86 K	124.9 J/K/mol	–
132.15 K	–	131.8 J/K/mol
132.89 K	125.5 J/K/mol	–
133.84 K	126 J/K/mol	–
134.14 K	–	132.9 J/K/mol
134.99 K	126.6 J/K/mol	–
135.84 K	127 J/K/mol	–
136.13 K	–	134 J/K/mol
137.08 K	127.7 J/K/mol	–
137.83 K	128 J/K/mol	–
138.12 K	–	135.2 J/K/mol
139.18 K	128.7 J/K/mol	–
139.83 K	129.1 J/K/mol	–
140 K	129.2 J/K/mol	136.2 J/K/mol
140.12 K	–	136.3 J/K/mol
141.28 K	129.8 J/K/mol	–
141.83 K	130.1 J/K/mol	–
142.11 K	–	137.4 J/K/mol
143.39 K	130.9 J/K/mol	–
143.83 K	131.1 J/K/mol	–
144.11 K	–	138.5 J/K/mol
145.49 K	132 J/K/mol	–
145.83 K	132.1 J/K/mol	–
146.11 K	–	139.7 J/K/mol
147.6 K	133 J/K/mol	–
